The values that follow come from US20040097420A1, “Proteasome regulation of NF-kB activity” (Harvard College, priority 1994, published 2004).

Usually Ki stands for the equilibrium dissociation constant of an inhibitor or competing ligand from its target.

In test [1] the test system is p60Tth processing by proteasome. As to the kind of experiment: In vitro processing of p60Tth with purified proteasomes / extract. Conditions: processing reaction with purified 20/26S proteasomes or fraction II and Pr−(II) extract. The class given is biochemical. The method, then:
The p60Tth precursor (or p105) was translated in wheat germ extract. The substrate protein was mixed with HeLa cell cytoplasmic extract (S100) in a processing buffer containing 12 mM Tris, pH 7.5, 60 mM KCl, 20 mM creatine phosphate, 3.5 mM MgCl2 and 1 mM ATP. After incubation at 30° C for one hour, the reaction mixtures were subjected to immunoprecipitation with anti-p50 Ab and the proteins were resolved by SDS-PAGE. In the Apyrase treated sample, the p60 was incubated with 10 U of enzyme at 37° C. for 30 minutes to inactivate residual ATP in the wheat germ extract before adding the HeLa cell S100.
Increasing amounts of purified 20/26S proteasomes or a proteasome-enriched fraction from reticulocyte lysate, fraction II, were added alone or were combined with Pr^−(II) extract in a processing reaction (see Example 4). In addition, processing was inhibited by ATPγS, a non-hydrolyzable analogue of ATP that allows ubiquitination but inhibits proteasome function (lanes 3-5).

For test [2], the target named is T1, chymotrypsin-like activity of the proteasome (UniProt Q32KL2).
T1 sequence (Q32KL2 1-263): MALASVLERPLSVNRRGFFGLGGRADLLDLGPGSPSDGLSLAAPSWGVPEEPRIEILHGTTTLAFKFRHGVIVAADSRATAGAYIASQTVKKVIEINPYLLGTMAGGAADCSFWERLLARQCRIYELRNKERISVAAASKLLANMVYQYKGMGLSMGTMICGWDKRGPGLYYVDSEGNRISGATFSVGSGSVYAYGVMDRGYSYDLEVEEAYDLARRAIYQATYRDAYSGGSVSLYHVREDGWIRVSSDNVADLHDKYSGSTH
Particulars: slow binding inhibitors; Vinitsky et al., Biochemistry 31:9421-9428 (1992); cited from earlier work.

For another test, the target named is T2, 26S proteasome (Oryctolagus cuniculus, UniProt G1T4Q9).
T2 sequence (G1T4Q9 1-263): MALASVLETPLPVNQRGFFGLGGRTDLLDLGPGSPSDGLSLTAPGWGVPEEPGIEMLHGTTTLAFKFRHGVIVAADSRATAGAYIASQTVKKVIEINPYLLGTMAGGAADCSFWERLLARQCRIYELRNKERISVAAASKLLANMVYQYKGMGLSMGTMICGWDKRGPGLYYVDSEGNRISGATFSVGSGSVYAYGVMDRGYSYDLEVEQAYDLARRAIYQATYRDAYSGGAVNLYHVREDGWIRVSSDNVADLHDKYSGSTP
Description: Inhibition of the 26S proteasome (kinetic experiments, Ki). Conditions: Rabbit muscle; substrate Suc-LLVY-AMC; [Mg:ATP] = 2 mM. Format: biochemical. An excerpt: (§1) Tables I-III summarize results from kinetic experiments that measured the inhibition of the 20S and 26S proteasomes, as well as cathepsin B and calpain. In these tables, Ki values are reported, which are dissociation constants for the equilibrium that is established when enzyme and inhibitor interact to form the enzyme:inhibitor complex.
(§2) The substances and assay conditions are briefly summarized in the footnotes to Table I. MG 101 and MG 102, also known as Calpain Inhibitor I and II, were purchased from Calbiochem as catalogue products.

A further test deals with T3, cathepsin B (Bos taurus, UniProt P07688).
T3 construct: Bovine spleen; Substrate: Z-RR-AMC; from tissue; host or cells: bovine spleen
Description: Inhibition of cathepsin B (Ki). The class given is biochemical. Conditions: Bovine spleen; substrate Z-RR-AMC; [DTT] = 2 mM, [EDTA] = 5 mM, pH 5.5, 37° C.; read-out: Ki Cat B.
From the text: as §1

For test [3], the target named is calpain, 80 kD catalytic subunit. Description: Inhibition of calpain (Ki). Format: biochemical. Conditions: Rabbit muscle, substrate Suc-LLVY-AMC, [CaCl2] = 1 mM, [DTT] = 2 mM, pH 7.8, 20° C.
From the text: as §1

The target of test [4] is T4, 20S Proteasome (Oryctolagus cuniculus, UniProt G1T4Q9).
T4 sequence (G1T4Q9 1-263): T2 sequence (G1T4Q9 1-263)
Description: MG 101 inhibition of muscle 20S proteasome (Table IV). Conditions: enzyme preparation: 20S Proteasome (muscle). Format: biochemical.

A further test has as its target T5, 26S Proteasome Complex (Oryctolagus cuniculus, UniProt G1T4Q9).
T5 sequence (G1T4Q9 1-263): T2 sequence (G1T4Q9 1-263)
Description: MG 101 inhibition of muscle 26S proteasome complex (Table IV). Conditions: enzyme preparation: 26S Proteasome Complex (muscle). Format: biochemical.

The target of test [5] is T6, 20S Proteasome + Muscle 180 kDa Activator (Oryctolagus cuniculus, UniProt G1T4Q9).
T6 sequence (G1T4Q9 1-263): T2 sequence (G1T4Q9 1-263)
As to the kind of experiment: MG 101 inhibition of 20S proteasome + muscle 180 kDa activator (Table IV). The class given is biochemical. Particulars: enzyme preparation: 20S Proteasome + Muscle 180 kDa Activator.

The next test addresses T7, 20S Proteasome ± SDS (Oryctolagus cuniculus, UniProt G1T4Q9).
T7 sequence (G1T4Q9 1-263): T2 sequence (G1T4Q9 1-263)
As to the kind of experiment: MG 101 inhibition of 20S proteasome with SDS (Table IV). Format: biochemical. Particulars: enzyme preparation: 20S Proteasome ± SDS.

The target of test [6] is T4, 20S Proteasome. As to the kind of experiment: Inhibition of the 20S proteasome (kinetic experiments, Ki). The class given is biochemical, Rabbit. More on the design: Ki 20 S; substrate Suc-LLVY-AMC. Conditions: Rabbit muscle, SDS-activated; substrate Suc-LLVY-AMC.
From the text: as §1, §2
Table V summarizes data for the inhibition of the 20S proteasome by various tripeptide aldehyde inhibitors.

The subject of the next test is PC12 cells. Particulars: Tsubuki et al. (1993); cited from earlier work.

Structures are written as SMILES. Non-standard residues stand in square brackets, D forms with d. Residues, ends and D or L forms follow the SMILES beside them. *: point of attachment. 2Nal = N[C@@H](Cc1ccc2ccccc2c1)C(=O)O; Nle = CCCC[C@H](N)C(=O)O; Abu = CC[C@H](N)C(=O)O; Cbz = O=C(OCc1ccccc1)*

For the molecule `Nc1ncnc2c1ncn2[C@@H]1O[C@H](COP(=O)(O)OP(=O)(O)OP(O)(O)=S)[C@@H](O)[C@H]1O` [ATPγS], the “effect on p60Tth processing in vitro” value in test [1] is reported as “inhibited”.
For `CSCC[C@@H](C=O)NC(=O)[C@H](CC(C)C)NC(=O)[C@H](CC(C)C)NC(C)=O` [Ac-LLM-H, N-acetyl-Leu-Leu-methioninal] (Ac-Leu-Leu-Met-aldehyde), the Ki in test [2] was 33000 nM.
With `CCCC[C@@H](C=O)NC(=O)[C@H](CC(C)C)NC(=O)[C@H](CC(C)C)NC(C)=O` [MG 101, Ac-Leu-Leu-Nle-H] (Ac-Leu-Leu-[Nle]-aldehyde), the Ki was 1000 nM on 26S proteasome; 6 nM on cathepsin B; 5 nM in test [3]; 7000 nM on 20S Proteasome [4]; 3000 nM at 26S Proteasome Complex; 600 nM in [5]. Also, the values for the Ki (at 20S Proteasome ± SDS; in test [2]; at 20S Proteasome [6]) were 140 nM, 5700 nM and 140 nM, respectively.
`CC(C)C[C@H](NC(=O)OCc1ccccc1)C(=O)N[C@@H](CC(C)C)C(=O)N[C@H](C=O)Cc1ccccc1` [MG 110, Z-Leu-Leu-Phe-H] (Cbz-Leu-Leu-Phe-aldehyde): the Ki on 26S proteasome is 180 nM; on cathepsin B, 100 nM; in [3] it was 62 nM; in test [2], 460 nM; at 20S Proteasome [6], 48 nM.
As to `CC[C@@H](C=O)NC(=O)[C@H](CC(C)C)NC(=O)[C@H](CC(C)C)NC(=O)OCc1ccccc1` [MG 119] (Cbz-Leu-Leu-[Abu]-aldehyde), the Ki on 26S proteasome was 280 nM; at cathepsin B, 18 nM; in [3], 15 nM; on 20S Proteasome [6], 50 nM.
With `CC(C)C[C@H](NC(=O)OCc1ccccc1)C(=O)N[C@@H](CC(C)C)C(=O)N[C@H](C=O)C(C)C` [MG 120] (Cbz-Leu-Leu-Val-aldehyde), the Ki on 26S proteasome is 560 nM; on cathepsin B it was 36 nM; in test [3] it was 14 nM; on 20S Proteasome [6], 94 nM.
For `CC(C)C[C@H](NC(=O)OCc1ccccc1)C(=O)N[C@@H](CC(C)C)C(=O)N[C@H](C=O)Cc1ccc2ccccc2c1` [MG 121, Z-Leu-Leu-Nal-H] (Cbz-Leu-Leu-[2Nal]-aldehyde), in that order: 70 nM, 73 nM, 62 nM and 25 nM.
As to `CCOC(=O)C(=O)[C@H](Cc1ccccc1)NC(=O)[C@H](CC(C)C)NC(=O)[C@H](CC(C)C)NC(=O)OCc1ccccc1` [Z-Leu-Leu-Phe-COOEt], the Ki in test [2] was 53000 nM.
For the molecule `CC(C)C[C@@H](C=O)NC(=O)[C@H](CC(C)C)NC(=O)[C@H](CC(C)C)NC(=O)OCc1ccccc1` [benzyloxycarbonyl(Z)-Leu-Leu-leucinal, Z-L-Leucine-L-Leucine-L-Leucinal] (Cbz-Leu-Leu-Leu-aldehyde), in the test with PC12 cells, the “optimal concentration initiating neurite outgrowth” value was 30 nM.
